Two compounds from ChEMBL document CHEMBL4145472, “Novel donepezil-like N-benzylpyridinium salt derivatives as AChE inhibitors and their corresponding dihydropyridine "bio-oxidizable" prodrugs: Synthesis, biological evaluation and structure-activity relationship” (Eur J Med Chem, 2018) can be followed below.

Data set [1] is described as follows: Half life in 2% riboflavine solution in PBS at 25 uM by HPLC-UV analysis. Conditions: 2% riboflavine solution in PBS. In kind it is physicochemical.
Another data set concerns the target Acetylcholinesterase (Homo sapiens, UniProt P22303). The experiment in a line: Inhibition of human erythrocyte AChE using acetylthiocholine iodide as substrate preincubated for 5 mins followed by substrate addition measured every minute for 10 mins by Ellman's method. (In general: In Ellman's method for cholinesterases, released thiocholine reacts with DTNB.)

The target in another data set is Cholinesterase (Equus caballus, UniProt P81908).
Cholinesterase, sequence (P81908 whole entry): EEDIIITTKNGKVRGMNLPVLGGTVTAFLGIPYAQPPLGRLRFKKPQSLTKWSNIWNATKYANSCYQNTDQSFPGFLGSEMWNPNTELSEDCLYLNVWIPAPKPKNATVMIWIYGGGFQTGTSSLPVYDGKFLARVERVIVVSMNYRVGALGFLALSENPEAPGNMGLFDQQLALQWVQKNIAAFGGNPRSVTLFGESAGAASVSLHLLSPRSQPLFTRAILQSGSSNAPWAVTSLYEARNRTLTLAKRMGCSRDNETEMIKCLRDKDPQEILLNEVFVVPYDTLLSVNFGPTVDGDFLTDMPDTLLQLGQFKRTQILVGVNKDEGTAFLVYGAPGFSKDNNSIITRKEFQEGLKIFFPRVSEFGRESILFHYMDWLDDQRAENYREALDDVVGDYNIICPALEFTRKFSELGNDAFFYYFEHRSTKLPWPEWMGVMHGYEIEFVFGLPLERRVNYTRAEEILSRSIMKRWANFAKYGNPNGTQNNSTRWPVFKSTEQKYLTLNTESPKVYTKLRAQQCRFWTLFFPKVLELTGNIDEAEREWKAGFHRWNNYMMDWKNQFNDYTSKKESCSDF
A short description of a further data set: in vitro. Conditions: PAMPA, pH 7.4.

Acetylcholinesterase, sequence (P22303 whole entry): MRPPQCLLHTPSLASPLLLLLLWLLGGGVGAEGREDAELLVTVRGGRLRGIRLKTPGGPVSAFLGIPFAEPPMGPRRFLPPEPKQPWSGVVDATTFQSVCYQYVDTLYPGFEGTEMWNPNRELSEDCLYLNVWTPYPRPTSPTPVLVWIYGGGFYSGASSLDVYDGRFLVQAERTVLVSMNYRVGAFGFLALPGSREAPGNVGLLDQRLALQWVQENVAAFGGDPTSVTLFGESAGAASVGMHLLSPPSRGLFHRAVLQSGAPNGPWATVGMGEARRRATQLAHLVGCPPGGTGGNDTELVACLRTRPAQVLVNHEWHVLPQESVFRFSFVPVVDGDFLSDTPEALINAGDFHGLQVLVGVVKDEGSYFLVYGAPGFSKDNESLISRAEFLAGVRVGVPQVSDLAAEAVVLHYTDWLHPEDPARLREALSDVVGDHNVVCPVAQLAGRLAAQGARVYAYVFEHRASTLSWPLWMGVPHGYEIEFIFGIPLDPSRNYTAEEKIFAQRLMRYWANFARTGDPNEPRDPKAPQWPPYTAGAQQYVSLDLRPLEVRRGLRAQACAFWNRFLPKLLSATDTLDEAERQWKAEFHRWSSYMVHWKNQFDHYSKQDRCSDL

Usually half-life stands for the time in which the quantity being followed falls by half. Low values mean rapid decline, high ones slow decline. By IC50 is commonly meant the concentration needed to halve the response being measured. In data set [1], `COc1cc2c(cc1OC)C(=O)C(CC1C=CN(Cc3cccc(Cl)c3)C=C1C(N)=O)C2` (stereo in doubt; 23h-A) had a half-life at 25 µM of 24.6 min. The half-maximal inhibitory concentration (IC50) at Acetylcholinesterase turned out to be 5.34 µM; against Cholinesterase, 14.3 µM.

For orientation: Papp means the rate of passage across a membrane or cell layer, normalised by area and donor concentration. `Cn1c(=O)c2[nH]cnc2n(C)c1=O.O` [THEOPHYLLINE] came in with a Papp at 250 µM in “in vitro” of 0.4 to 0.66 ×10⁻⁶ cm/s.
